Like-named read-outs stand apart in the source and are kept apart here.
How the values were obtained:
[1] = biological target: human GABAA α5β2γ1 receptor (Homo sapiens (Human), UniProt P31644+Q8N1C3); assay: Radioligand binding assay, competition for [3H]RO7239181, γ1-containing GABAA subtypes; conditions: Table 1; [3H]RO7239181 displacement, membranes from HEK293F cells, mean of two determinations
Method: The affinity of compounds at GABAA γ1 subunit-containing receptors was measured by competition for [^3H]RO7239181 (67.3 Ci/mmol; Roche) binding to membranes from HEK293F cells (ThermoFisher R79007) expressing human (transiently transfected) receptors of composition α5β2γ1, α2β2γ1, α1β2γ1. For better protein expression of the α2 subunit-containing receptors, the 28 amino acid long signal peptide (Met1 to Ala28) of the human GABAA α2 subunit was substituted by the 31 amino acid long signal peptide (Met1 to Ser31) of human GABAA α5 subunit.
(§1) Harvested pellets from HEK293F cells expressing the different GABAA receptor subtypes were resuspended in Mannitol Buffer pH 7.2-7.4 (Mannitol 0.29 M, Triethylamine 10 mM, Acetic acid 10 mM, EDTA 1 mM plus protease inhibitors (20 tablets Complete, Roche Diagnostics Cat. No. 05 056 489 001 per liter)), washed two times and then resuspended at 1:10 to 1:15 dilution in the same buffer. Cell disruption was performed by stirring the suspension in a Parr vessel #4637 at 435 psi for 15 minutes, and then the suspensions were centrifuged at 1000×g for 15 minutes at 4° C. (Beckman Avanti J-HC: rotor JS-4.2). The supernatant (S1) was transferred in a 21 Schott flask and the pellet (P1) was resuspended with Mannitol Buffer up to 175 ml. The resuspended pellet was transferred into a 250 ml Corning centrifugal beaker and centrifuged at 1500×g for 10 minutes at 4° C. (Beckman Avanti J-HC: rotor JS-4.2). The supernatant (S1) was then transferred in the 21 Schott flask and the pellet was discarded. The supernatants (S1) were centrifuged in 500 ml Beckman polypropylene centrifugal beaker at 15′000×g for 30 minutes at 4° C. (Beckman Avanti J-20 XP; rotor JLA-10.500). The pellet (P2) was resuspended with Mannitol Buffer 1:1 and frozen at −80° C. The supernatant (S2) was centrifuged in 100 ml Beckman polypropylene centrifugal tubes at 48000×g for 50 minutes at 4° C. (Beckman Avanti J-20 XP; rotor JA-18). The supernatant (S3) was discarded and the pellet (P3) was resuspended with 1:1 Mannitol Buffer. The P2 and P3 protein concentration was determined with the BIORAD Standard assay method with bovine serum albumin as standard and measured on the NANO-Drop 1000. The membrane suspension was aliquots (500 μl per tube) and stored at −80° C. until required.
(§2) Membrane homogenates were resuspended and polytronised (Polytron PT1200E Kinematica AG) in Potassium Phosphate 10 mM, KCl 100 mM binding buffer at pH 7.4 to a final assay concentration determined with a previous experiment.
Radioligand binding assays were carried out in a volume of 200 μL (96-well plates) which contained 100 μL of cell membranes, [3H]RO7239181 at a concentration of 1.5 nM (α5β2γ1) or 20-30 nM (α1β2γ1, α2β2γ1) and the test compound in the range of [0.3-10000]=10^−9 M. Nonspecific binding was defined by 10×10^−6 (α5β2γ1) and 30×10^−6 M RO7239181 and typically represented less than 5% (α5β2γ1) and less than 20% (β1β2γ1, α2β2γ1) of the total binding. Assays were incubated to equilibrium for 1 hour at 4° C. and then, membranes were filtered onto unifilter (96-well white microplate with bonded GF/C filters preincubated 20-50 minutes in 0.3% Polyethylenimine) with a Filtermate 196 harvester (Packard BioScience) and washed 4 times with cold Potassium Phosphate 10 mM pH 7.4, KCl 100 mM binding buffer. After anhydrousing, filter-retained radioactivity was detected by liquid scintillation counting. Ki values were calculated using Excel-Fit (Microsoft) and are the means of two determinations.
Representative test results, obtained by the above described assay measuring binding affinity to HEK293 cells expressing human (h) receptors, are shown in the Table 1.

[2] = biological target: human GABAA α2β2γ1 receptor (Homo sapiens (Human), UniProt P47869+Q8N1C3); assay: as above; conditions: for LogSel: Log of the γ2/γ1 Ki ratio
Method: The affinity of compounds at GABAA γ1 subunit-containing receptors was measured by competition for [^3H]RO7239181 (67.3 Ci/mmol; Roche) binding to membranes from HEK293F cells (ThermoFisher R79007) expressing human (transiently transfected) receptors of composition α5β2γ1, α2β2γ1, α1β2γ1.
as §1, §2
Assays were incubated to equilibrium for 1 hour at 4° C. and then, membranes were filtered onto unifilter (96-well white microplate with bonded GF/C filters preincubated 20-50 minutes in 0.3% Polyethylenimine) with a Filtermate 196 harvester (Packard BioScience) and washed 4 times with cold Potassium Phosphate 10 mM pH 7.4, KCl 100 mM binding buffer. After anhydrousing, filter-retained radioactivity was detected by liquid scintillation counting. Ki values were calculated using Excel-Fit (Microsoft) and are the means of two determinations.

[3] = biological target: human GABAA α1β3γ2 receptor (Homo sapiens (Human), UniProt P14867+P18507); assay: Radioligand binding assay, competition for [3H]Flumazenil, γ2-containing GABAA subtypes; conditions: read-out: Ki h-GABAA α1β3γ2
Method: The affinity of compounds at GABAA γ2 subunit-containing receptors was measured by competition for [^3H]Flumazenil (81.1 Ci/mmol; Roche) binding to HEK293F cells expressing human (transiently transfected) receptors of composition α1β3γ2.
Harvested pellets from HEK293F cells expressing the different GABAA γ2 receptor subtypes were resuspended in Mannitol Buffer pH 7.2-7.4 and processed as described above for the cells expressing the GABAA γ1 subunit-containing receptors.
Assays were incubated to equilibrium for 1 hour at 4° C. and harvested onto GF/C uni-filters (Packard) by filtration using a Packard harvester and washing with ice-cold wash buffer (50 mM Tris; pH 7.5). After anhydrousing, filter-retained radioactivity was detected by liquid scintillation counting. Ki values were calculated using Excel-Fit (Microsoft) and are the means of two determinations.

[4] = Ki h-GABAA α2β2γ1, Table 1, [3H]RO7239181 displacement, membranes from HEK293F cells, mean of two determinations
[5] = Ki h-GABAA α2β2γ1, Table 2, [3H]RO7239181 displacement
[6] = Table 1, Ki α1β3γ2 (nM)/Ki α2β2γ1 (nM)
[7] = Table 1, [3H]Flumazenil displacement, HEK293F cells, mean of two determinations
[8] = Ki h-GABAA α2β2γ1, Table 3, reference compounds comparison
[9] = Table 3, reference compounds comparison

Row | SMILES | Ki [1] | Ki [2, 4] | Ki [2, 5] | γ2/γ1 Selectivity Ratio [2, 6] | LogSel ([2]; Table 1) | Ki [3, 7] | Ki [2] | Ki ([2]; read-out: Ki h-GABAA α2β2γ1, Table 2, [3H]RO7239181 displacement) | Ki [2, 8] | γ2/γ1 Selectivity Ratio ([2]; Table 3, Ki α1β3γ2/Ki α2β2γ1) | LogSel ([2]; Table 3) | Ki [3, 9] | Ki ([2]; Table 1, [3H]RO7239181 displacement, membranes from HEK293F cells, mean of two determinations, read-out: Ki h-GABAA α2β2γ1) | Ki ([2]; Table 2, [3H]RO7239181 displacement, read-out: Ki h-GABAA α2β2γ1)
1 | Cc1nnc2n1-c1cnc(Cl)c(Cl)c1C(c1c(F)cccc1F)=N[C@H]2C [Example 1, (7S)-11,12-dichloro-9-(2,6-difluorophenyl)-3,7-dimethyl-2,4,5,8,13-pentazatricyclo[8.4.0.02,6]tetradeca-1(10),3,5,8,11,13-hexaene] | 2.4 nM | 31.7 nM | 31.7 nM | 34 | 1.53 | 1090 nM |  |  |  |  |  |  |  | 
2 | Cc1nnc2n1-c1cnc(C3CC3)c(Cl)c1C(c1c(F)cccc1F)=N[C@H]2C [Example 2, (7S)-11-chloro-12-cyclopropyl-9-(2,6-difluorophenyl)-3,7-dimethyl-2,4,5,8,13-pentazatricyclo[8.4.0.02,6]tetradeca-1(10),3,5,8,11,13-hexaene] | 12.6 nM |  |  | 23 | 1.36 | 3290 nM | 143 nM | 143 nM |  |  |  |  |  | 
3 | Cc1ncc2c(c1Cl)C(c1c(F)cccc1F)=N[C@@H](C)c1nnc(C)n1-2 [Example 3, (7S)-11-chloro-9-(2,6-difluorophenyl)-3,7,12-trimethyl-2,4,5,8,13-pentazatricyclo[8.4.0.02,6]tetradeca-1(10),3,5,8,11,13-hexaene] | 4.7 nM | 51.6 nM | 51.6 nM | 35 | 1.54 | 1790 nM |  |  |  |  |  |  |  | 
4 | Cc1nnc2n1-c1cnc(C(F)(F)F)c(Cl)c1C(c1c(F)cccc1F)=N[C@H]2C [Example 4, (7S)-11-chloro-9-(2,6-difluorophenyl)-3,7-dimethyl-12-(trifluoromethyl)-2,4,5,8,13-pentazatricyclo[8.4.0.02,6]tetradeca-1(10),3,5,8,11,13-hexaene] | 4.9 nM | 64.3 nM | 64.3 nM | 113 | 2.05 | 7270 nM |  |  | 64.3 nM | 113 | 2.1 | 7270 nM |  | 
5 | Cc1nc2n(n1)-c1cnc(C(F)(F)F)c(Cl)c1C(c1c(F)cccc1F)=N[C@H]2C [Example 5] | 1.7 nM |  |  | 118 | 2.07 | 4740 nM |  |  |  |  |  |  | 40 nM | 40 nM
6 | C[C@@H]1N=C(c2c(F)cccc2F)c2c(cnc(C(F)(F)F)c2Cl)-n2nc(C(=O)N3CCC3)nc21 [Example 6, azetidin-1-yl-[(7S)-11-chloro-9-(2,6-difluorophenyl)-7-methyl-12-(trifluoromethyl)-2,3,5,8,13-pentazatricyclo[8.4.0.02,6]tetradeca-1(10),3,5,8,11,13-hexaen-4-yl]methanone] | 11.6 nM | 45.2 nM | 45.2 nM | 227 | 2.36 | 10200 nM |  |  |  |  |  |  |  | 
7 | C[C@@H]1N=C(c2c(F)cccc2F)c2c(cnc(C(F)(F)F)c2Cl)-n2nc(C(=O)N3CC(F)C3)nc21 [Example 7, [(7S)-11-chloro-9-(2,6-difluorophenyl)-7-methyl-12-(trifluoromethyl)-2,3,5,8,13-pentazatricyclo[8.4.0.02,6]tetradeca-1(10),3,5,8,11,13-hexaen-4-yl]-(3-fluoroazetidin-1-yl)methanone] | 3.5 nM | 20.2 nM | 20.2 nM | 253 | 2.40 | 5100 nM |  |  |  |  |  |  |  | 
8 | C[C@@H]1N=C(c2c(F)cccc2F)c2c(cnc(C(F)(F)F)c2Cl)-n2nc(C(=O)N3CC(O)C3)nc21 [Example 8, [(7S)-11-chloro-9-(2,6-difluorophenyl)-7-methyl-12-(trifluoromethyl)-2,3,5,8,13-pentazatricyclo[8.4.0.02,6]tetradeca-1(10),3,5,8,11,13-hexaen-4-yl]-(3-hydroxyazetidin-1-yl)methanone] | 2.5 nM | 14.6 nM | 14.6 nM | 255 | 2.41 | 3720 nM |  |  |  |  |  |  |  | 
9 | COC1CN(C(=O)c2nc3n(n2)-c2cnc(C(F)(F)F)c(Cl)c2C(c2c(F)cccc2F)=N[C@H]3C)C1 [Example 9, [(7S)-11-chloro-9-(2,6-difluorophenyl)-7-methyl-12-(trifluoromethyl)-2,3,5,8,13-pentazatricyclo[8.4.0.02,6]tetradeca-1(10),3,5,8,11,13-hexaen-4-yl]-(3-methoxyazetidin-1-yl)methanone] | 7.1 nM | 19.9 nM | 19.9 nM | 170 | 2.23 | 3390 nM |  |  |  |  |  |  |  | 
10 | C[C@@H]1N=C(c2c(F)cccc2F)c2c(cnc(C(F)(F)F)c2Cl)-n2nc(C(=O)N3CC(C)(O)C3)nc21 [Example 10, [(7S)-11-chloro-9-(2,6-difluorophenyl)-7-methyl-12-(trifluoromethyl)-2,3,5,8,13-pentazatricyclo[8.4.0.02,6]tetradeca-1(10),3,5,8,11,13-hexaen-4-yl]-(3-hydroxy-3-methyl-azetidin-1-yl)methanone] | 3 nM | 14.3 nM | 14.3 nM | 321 | 2.51 | 4610 nM |  |  | 14.3 nM | 321 | 2.5 | 4610 nM |  | 
